# Measurements as given in patent US20230241071A1, “COMBINATION TREATMENT OF LIVER DISORDERS” (Terns Pharmaceuticals, Inc., priority 2021, published 2023).
# Tests used:
# VAP-1 = target: T1, VAP-1 (Homo sapiens, UniProt Q16853); experiment: Compound 1 10 mg QD for 12 weeks in adults with non-cirrhotic NASH phenotype; type: in vivo
# T1 construct: from tissue; host or cells: plasma of trial patients
# T1 sequence (Q16853 29-763 limits assumed): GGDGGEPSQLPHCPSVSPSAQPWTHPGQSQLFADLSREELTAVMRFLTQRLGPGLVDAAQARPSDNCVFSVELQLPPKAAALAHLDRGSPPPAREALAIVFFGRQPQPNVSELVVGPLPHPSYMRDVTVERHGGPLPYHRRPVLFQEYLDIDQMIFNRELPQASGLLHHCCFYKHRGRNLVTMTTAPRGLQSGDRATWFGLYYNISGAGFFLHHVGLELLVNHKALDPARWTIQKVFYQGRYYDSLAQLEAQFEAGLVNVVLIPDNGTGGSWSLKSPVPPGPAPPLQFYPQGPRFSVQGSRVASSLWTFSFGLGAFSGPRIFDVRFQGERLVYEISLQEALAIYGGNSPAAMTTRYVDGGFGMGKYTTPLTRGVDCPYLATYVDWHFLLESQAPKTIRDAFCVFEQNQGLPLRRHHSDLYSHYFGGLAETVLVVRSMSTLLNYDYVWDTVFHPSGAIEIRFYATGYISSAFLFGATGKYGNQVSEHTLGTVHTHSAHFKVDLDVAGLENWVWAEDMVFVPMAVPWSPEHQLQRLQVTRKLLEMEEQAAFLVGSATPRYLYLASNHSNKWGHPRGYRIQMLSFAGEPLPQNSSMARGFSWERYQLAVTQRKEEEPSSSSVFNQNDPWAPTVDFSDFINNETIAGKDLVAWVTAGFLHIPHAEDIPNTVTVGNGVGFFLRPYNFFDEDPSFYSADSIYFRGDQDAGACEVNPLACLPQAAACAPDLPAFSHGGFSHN
# Protocol: Part 1 interim analysis primary endpoint was safety assessed by adverse events (AEs) and laboratory tests; percent change from baseline (BL) in plasma VAP-1 activity was a secondary endpoint. Exploratory imaging and blood-based biomarkers of liver inflammation and fibrosis were also assessed. Analyses of change (or percent change) from baseline used an ANCOVA model with change (or percent change) from baseline as the dependent variable including treatment group and randomization strata as fixed effects and baseline as a covariate.
# mouse NASH model = experiment: Mouse NASH model (high fat diet + CCl4), Compound 2; type: in vivo
# Protocol: (§1) C57BL/6J mice were fed a high fat diet for 10 weeks to induce obesity (>38 g BW). Obese mice were injected intraperitoneally (i.p.) twice a week for four weeks with 0.5 μl/g 25% CCl4 (formulated in olive oil) to induce fibrosis, and one group of normal BW mice were injected i.p. twice a week for four weeks with olive oil to serve as a healthy control. During the same dosing period, obese mice were fed orally once a day for 28 days with vehicle or varying doses of Compound 2. On CCl4 dosing days, CCl4 was administered at 4 hours post compound or vehicle dosing. On day 27, all animals were fasted for about 16 hours before terminal euthanasia. On day 28, all animals were sacrificed and various biological parameters were analyzed. Total body, liver, heart and brain weight were measured and changes in liver and heart weight were normalized using brain weight.
# (§2) Liver samples were collected for whole transcriptome analysis by RNA sequencing (RNAseq). RNAseq library (n=5 per group) preparation and sequencing was performed using Illumina standard protocols. Alignment of sequencing reads was performed using STAR aligner software and read counts were estimated using RSEM. Differentially expressed genes (compared to vehicle-treated NASH control mice) were determined using EdgeR software. Gene ontology analysis was performed using Advaita software with fold-change and adjusted p-value cutoffs of >1.5 and <0.05, respectively. Gene ontologies were derived from the Gene Ontology Consortium database (2019 Apr. 26) (Ashburner et al., Gene ontology: Tool for the unification of biology. Nature Genetics 25(1): 25-9 (2000); Gene Ontology Consortium, Creating the Gene Ontology Resource: Design and Implementation. Genome Research 11: 1425-1433 (2001)).
# [1] = as above; type: in vivo; conditions: C57BL/6J, in vivo, oral; mouse model of NASH; read-out: threshold AUC achieving significant histological improvement
# Protocol: as §1, §2
# [2] = system: SD rats fed a high cholesterol diet; experiment: Rat hypercholesterolemic model; type: in vivo; conditions: single IP dose 0.3 to 30 mpk, 24 h after injection
# Protocol: SD rats were fed a high cholesterol diet for 2 weeks, increasing the serum cholesterol levels ˜4-fold over that time. Single doses of Compound 2 from 0.3 to 30 mpk or a single 30 mpk dose of MGL-3196 were injected IP and serum was analyzed for total serum cholesterol and triglycerides 24 h after the injection.
# THR-β = target: T2, THR-β (Homo sapiens, UniProt P10828); experiment: Binding activity to the thyroxine receptor beta
# T2 sequence (P10828 1-461): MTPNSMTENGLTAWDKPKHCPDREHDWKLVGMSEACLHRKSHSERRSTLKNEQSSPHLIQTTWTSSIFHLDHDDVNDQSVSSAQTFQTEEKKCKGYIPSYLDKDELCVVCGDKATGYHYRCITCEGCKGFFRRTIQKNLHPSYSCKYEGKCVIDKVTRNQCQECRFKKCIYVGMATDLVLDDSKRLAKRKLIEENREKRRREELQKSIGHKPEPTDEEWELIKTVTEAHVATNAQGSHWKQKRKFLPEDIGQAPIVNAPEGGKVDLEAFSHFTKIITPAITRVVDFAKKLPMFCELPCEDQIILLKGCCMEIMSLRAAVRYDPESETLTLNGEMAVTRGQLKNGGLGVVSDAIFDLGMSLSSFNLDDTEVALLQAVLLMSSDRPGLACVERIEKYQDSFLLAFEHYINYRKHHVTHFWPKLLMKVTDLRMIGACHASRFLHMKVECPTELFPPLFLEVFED
# [3] = oral QD 28 days, all doses tested
Compound,"change from BL in cT1, liver fat fraction, liver enzymes, or cytokeratin-18 vs placebo (VAP-1; 10 mg QD 12 weeks)",safety and tolerability (VAP-1; 10 mg QD 12 weeks),"inhibition at 10 mg (VAP-1; 10 mg QD, most subjects, by week 2, sustained through week 12, read-out: inhibition of plasma VAP-1 activity)",expression of genes associated with collagen extracellular matrix and hepatic stellate cell activation (mouse NASH model; liver RNAseq vs NASH control mice),liver inflammation (histology) (mouse NASH model; oral QD 28 days),liver/brain weight (mouse NASH model; oral QD 28 days),total body weight or heart/brain weight (mouse NASH model; oral QD 28 days),"liver fibrosis (histology) (mouse NASH model; oral QD 28 days, 3 and 10 mpk)",liver steatosis (histology) (mouse NASH model; [3]),"serum total cholesterol, triglycerides and ALT (mouse NASH model; [3])",AUC [1],reduction of serum triglycerides from time 0 [2],reduction of total cholesterol in the serum [2],THR-α/-β selectivity (THR-β; ratio of binding IC50),IC50 (THR-β; read-out: IC50 THR-β binding force)
"COC1CCN(c2ncc(OC/C(=C/F)CN)cn2)CC1 [Compound 1, (E)-3-fluoro-2-(((2-(4-methoxypiperidin-1-yl)pyrimidin-5-yl)oxy)methyl)prop-2-en-1-amine]",no statistically significant differences,well-tolerated with a safety profile similar to placebo,> 98%,–,–,–,–,–,–,–,–,–,–,–,–
"N#Cc1nn(-c2cc(Cl)c(Oc3n[nH]c(=O)c4ccccc34)c(Cl)c2)c(=O)[nH]c1=O [Compound 2, 2-(3,5-dichloro-4-((4-oxo-3,4-dihydrophthalazin-1-yl)oxy)phenyl)-3,5-dioxo-2,3,4,5-tetrahydro-1,2,4-triazine-6-carbonitrile]",–,–,–,reducing their expression levels,trend in inflammation reduction,significantly reduced,no effect,significantly reduced,significantly reduced,significantly reduced,3320 ng·h/mL,30-80%,30-70%,>58.8 factor,170 nM
